From ChEMBL document CHEMBL4371033, “Highly Potent and Selective Plasmin Inhibitors Based on the Sunflower Trypsin Inhibitor-1 Scaffold Attenuate Fibrinolysis in Plasma” (J Med Chem, 2019) come the findings set out here.

For assay [1], the target named is Trypsin (Sus scrofa) (UniProt P00761). The assay can be described thus: Inhibition of porcine trypsin assessed as dissociation rate constant using peptide-pNA as substrate.
Assay [2] deals with T1, Coagulation factor XII (Homo sapiens, UniProt P00748).
T1 sequence (P00748 whole entry): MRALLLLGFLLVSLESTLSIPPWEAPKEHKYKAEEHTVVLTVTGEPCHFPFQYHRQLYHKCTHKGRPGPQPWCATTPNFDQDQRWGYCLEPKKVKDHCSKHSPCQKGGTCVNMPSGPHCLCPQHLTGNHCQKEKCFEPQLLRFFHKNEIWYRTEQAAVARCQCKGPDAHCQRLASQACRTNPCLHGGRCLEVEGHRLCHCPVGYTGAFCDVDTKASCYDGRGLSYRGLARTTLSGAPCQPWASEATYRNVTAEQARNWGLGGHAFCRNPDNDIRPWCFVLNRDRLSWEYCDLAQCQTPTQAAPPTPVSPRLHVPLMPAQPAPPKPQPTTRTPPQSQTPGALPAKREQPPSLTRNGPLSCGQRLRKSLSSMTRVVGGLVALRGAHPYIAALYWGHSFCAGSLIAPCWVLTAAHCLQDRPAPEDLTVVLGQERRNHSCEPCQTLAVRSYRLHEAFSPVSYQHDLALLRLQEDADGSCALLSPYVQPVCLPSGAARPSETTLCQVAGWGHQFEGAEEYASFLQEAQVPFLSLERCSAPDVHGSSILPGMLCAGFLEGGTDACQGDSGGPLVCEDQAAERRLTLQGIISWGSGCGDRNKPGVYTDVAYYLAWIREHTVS
Kind of assay: Inhibition of human beta-factor 12a using Ac-QRFR-pNA as substrate after 30 mins.

The target in assay [3] is Trypsin (Sus scrofa) (UniProt P00761). Kind of assay: Inhibition of porcine trypsin assessed as association rate constant using peptide-pNA as substrate.
Assay [4] is described as follows: Inhibition of bovine trypsin pre-incubated for 60 mins before tos-GPR-AMC substrate addition. Also noted: species or system Bos taurus.
In assay [5] the target is T2, Suppressor of tumorigenicity 14 protein (Homo sapiens, UniProt Q9Y5Y6).
T2 sequence (Q9Y5Y6 whole entry): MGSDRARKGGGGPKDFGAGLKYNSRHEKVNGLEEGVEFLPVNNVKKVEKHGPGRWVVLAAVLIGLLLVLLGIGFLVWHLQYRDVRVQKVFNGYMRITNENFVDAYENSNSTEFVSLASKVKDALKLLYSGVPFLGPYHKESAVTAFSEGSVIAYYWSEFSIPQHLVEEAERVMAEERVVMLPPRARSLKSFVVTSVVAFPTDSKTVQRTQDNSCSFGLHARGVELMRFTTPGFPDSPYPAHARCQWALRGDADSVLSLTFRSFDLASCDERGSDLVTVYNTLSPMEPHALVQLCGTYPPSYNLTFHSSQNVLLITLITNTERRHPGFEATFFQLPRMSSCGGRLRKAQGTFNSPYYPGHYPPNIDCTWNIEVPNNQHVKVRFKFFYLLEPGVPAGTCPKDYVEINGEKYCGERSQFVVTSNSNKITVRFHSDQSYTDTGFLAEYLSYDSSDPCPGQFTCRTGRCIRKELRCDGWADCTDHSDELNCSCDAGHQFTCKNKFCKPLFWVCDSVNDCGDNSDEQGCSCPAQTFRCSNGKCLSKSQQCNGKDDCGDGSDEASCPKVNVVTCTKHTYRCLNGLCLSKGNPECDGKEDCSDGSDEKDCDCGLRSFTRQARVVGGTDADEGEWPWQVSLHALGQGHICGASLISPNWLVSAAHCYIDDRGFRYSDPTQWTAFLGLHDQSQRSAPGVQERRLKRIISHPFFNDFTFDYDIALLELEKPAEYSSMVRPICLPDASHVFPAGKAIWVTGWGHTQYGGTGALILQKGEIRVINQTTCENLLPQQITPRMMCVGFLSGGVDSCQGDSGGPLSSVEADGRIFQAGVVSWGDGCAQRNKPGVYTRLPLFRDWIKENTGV
The assay can be described thus: Inhibition of recombinant human matriptase catalytic domain pre-incubated for 60 mins before Boc QAR-AMC substrate addition.

In another assay the target is Plasminogen (Homo sapiens, UniProt P00747). Kind of assay: Inhibition of human plasmin using Ac-RM(O2)YR-pNA as substrate after 30 mins.
Another assay has as its target Coagulation factor IX (Homo sapiens, UniProt P00740). The assay can be described thus: Inhibition of activated beta-factor 9 (unknown origin) using Boc-QGR-MCA as substrate after 30 mins relative to untreated control.
The target of a further assay is T3, Cathepsin G (Homo sapiens, UniProt P08311).
T3 sequence (P08311 whole entry): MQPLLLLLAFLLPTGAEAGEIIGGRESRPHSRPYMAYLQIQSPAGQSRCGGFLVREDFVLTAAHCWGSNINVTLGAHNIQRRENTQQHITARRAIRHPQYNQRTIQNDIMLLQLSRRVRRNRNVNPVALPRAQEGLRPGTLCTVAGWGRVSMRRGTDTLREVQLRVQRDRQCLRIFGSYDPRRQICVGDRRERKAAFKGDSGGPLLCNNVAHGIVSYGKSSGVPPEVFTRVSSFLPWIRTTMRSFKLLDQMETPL
Kind of assay: Inhibition of human cathepsin G using Suc-AAPF-MCA as substrate after 30 mins.

For assay [6], the target named is T1, Coagulation factor XII. Kind of assay: Inhibition of activated beta-factor 12 (unknown origin) using Ac-QRFR-pNA as substrate after 30 mins relative to untreated control.
For another assay, the target named is T4, Serine protease 1 (Bos taurus, UniProt P00760).
T4 sequence (P00760 whole entry): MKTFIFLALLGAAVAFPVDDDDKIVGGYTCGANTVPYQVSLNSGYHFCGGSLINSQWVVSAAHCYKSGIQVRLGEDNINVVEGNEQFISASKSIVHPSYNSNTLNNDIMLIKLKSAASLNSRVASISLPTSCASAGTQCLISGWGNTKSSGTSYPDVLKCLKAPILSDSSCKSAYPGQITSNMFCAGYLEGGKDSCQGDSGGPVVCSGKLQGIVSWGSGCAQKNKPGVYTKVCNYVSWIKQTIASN
The assay can be described thus: Inhibition of bovine cationic trypsin using Bz-FVR-pNA as substrate after 30 mins.

Assay [7] addresses T2, Suppressor of tumorigenicity 14 protein. The assay can be described thus: Inhibition of matriptase (unknown origin) using Boc-QAR-MCA as substrate after 30 mins.
Assay [8] addresses T5, Prothrombin (Homo sapiens, UniProt P00734). Kind of assay: Inhibition of human thrombin using Ac-ATPR-pNA as substrate after 30 mins relative to untreated control.
In assay [9] the target is T6, Plasma kallikrein (Homo sapiens, UniProt P03952). The assay can be described thus: Inhibition of plasma KLK (unknown origin) using Ac-NLTR-pNA as substrate after 30 mins.
Assay [10] deals with Tissue-type plasminogen activator (Homo sapiens, UniProt P00750). The assay can be described thus: Inhibition of tPA (unknown origin) using Z-Pyr-Gly-Arg-MCA as substrate after 30 mins relative to untreated control.
The target of assay [11] is T5, Prothrombin. The assay can be described thus: Inhibition of human thrombin using Ac-ATPR-pNA as substrate after 30 mins.
The target in assay [12] is Urokinase-type plasminogen activator (Homo sapiens, UniProt P00749). The assay can be described thus: Inhibition of uPA (unknown origin) using Z-Pyr-Gly-Arg-MCA as substrate after 30 mins relative to untreated control.
For assay [13], the target named is T7, Coagulation factor XI (Homo sapiens, UniProt P03951). Kind of assay: Inhibition of activated beta-factor 11 (unknown origin) using Bz-FVRpNA as substrate after 30 mins.
The target in another assay is Coagulation factor X (Homo sapiens, UniProt P00742). The assay can be described thus: Inhibition of activated factor 10 (unknown origin) using Ac-QRSR-pNA as substrate after 30 mins relative to untreated control.
Assay [14] has as its target T2, Suppressor of tumorigenicity 14 protein. Kind of assay: Inhibition of matriptase (unknown origin) using Boc-QAR-MCA as substrate after 30 mins relative to untreated control.
In assay [15] the target is T6, Plasma kallikrein. The assay can be described thus: Inhibition of plasma KLK (unknown origin) using Ac-NLTR-pNA as substrate after 30 mins relative to untreated control.
The target of assay [16] is T7, Coagulation factor XI. The assay can be described thus: Inhibition of activated beta-factor 11 (unknown origin) using Bz-FVRpNA as substrate after 30 mins relative to untreated control.

Structures are written as SMILES. Residues, ends and D or L forms follow the SMILES beside them.

T7 sequence (P03951 19-387 limits assumed): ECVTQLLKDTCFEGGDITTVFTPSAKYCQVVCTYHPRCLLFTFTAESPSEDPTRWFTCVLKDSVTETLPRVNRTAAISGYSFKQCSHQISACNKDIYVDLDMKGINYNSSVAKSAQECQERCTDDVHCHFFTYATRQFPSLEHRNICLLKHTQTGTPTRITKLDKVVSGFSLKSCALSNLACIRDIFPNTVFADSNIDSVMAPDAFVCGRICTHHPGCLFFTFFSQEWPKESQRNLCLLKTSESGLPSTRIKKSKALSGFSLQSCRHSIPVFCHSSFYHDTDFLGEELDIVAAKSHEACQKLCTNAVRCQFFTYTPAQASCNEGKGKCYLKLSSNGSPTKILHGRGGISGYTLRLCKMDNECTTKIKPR
T7 sequence (P03951 388-625 limits assumed): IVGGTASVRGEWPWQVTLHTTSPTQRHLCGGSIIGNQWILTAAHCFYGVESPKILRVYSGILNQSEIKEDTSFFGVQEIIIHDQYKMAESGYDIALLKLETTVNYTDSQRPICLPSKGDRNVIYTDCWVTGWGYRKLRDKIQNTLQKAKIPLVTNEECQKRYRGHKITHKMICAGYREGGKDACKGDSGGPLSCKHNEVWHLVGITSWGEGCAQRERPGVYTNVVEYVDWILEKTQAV
Chain of Trypsin (Sus scrofa) (P00761 whole entry): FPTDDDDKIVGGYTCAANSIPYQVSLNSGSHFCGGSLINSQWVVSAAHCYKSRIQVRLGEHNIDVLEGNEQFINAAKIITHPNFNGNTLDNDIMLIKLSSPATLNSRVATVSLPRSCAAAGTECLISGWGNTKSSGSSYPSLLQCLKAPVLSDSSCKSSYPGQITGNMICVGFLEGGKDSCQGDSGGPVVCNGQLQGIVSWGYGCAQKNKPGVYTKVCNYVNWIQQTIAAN
Chain of Plasminogen (P00747 97-580 limits assumed): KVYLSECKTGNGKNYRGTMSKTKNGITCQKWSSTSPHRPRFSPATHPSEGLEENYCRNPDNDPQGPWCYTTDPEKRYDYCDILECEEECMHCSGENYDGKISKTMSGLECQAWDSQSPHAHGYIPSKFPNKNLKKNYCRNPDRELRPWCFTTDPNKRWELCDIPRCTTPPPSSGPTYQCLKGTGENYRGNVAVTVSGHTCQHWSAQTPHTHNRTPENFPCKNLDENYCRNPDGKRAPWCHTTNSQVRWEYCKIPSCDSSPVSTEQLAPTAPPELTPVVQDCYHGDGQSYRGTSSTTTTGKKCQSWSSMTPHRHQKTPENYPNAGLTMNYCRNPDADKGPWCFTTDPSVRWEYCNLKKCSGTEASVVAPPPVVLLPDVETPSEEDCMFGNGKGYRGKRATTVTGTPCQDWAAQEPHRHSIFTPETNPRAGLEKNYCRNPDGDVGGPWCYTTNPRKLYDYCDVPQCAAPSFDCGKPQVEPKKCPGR
Chain of Plasminogen (P00747 581-810 limits assumed): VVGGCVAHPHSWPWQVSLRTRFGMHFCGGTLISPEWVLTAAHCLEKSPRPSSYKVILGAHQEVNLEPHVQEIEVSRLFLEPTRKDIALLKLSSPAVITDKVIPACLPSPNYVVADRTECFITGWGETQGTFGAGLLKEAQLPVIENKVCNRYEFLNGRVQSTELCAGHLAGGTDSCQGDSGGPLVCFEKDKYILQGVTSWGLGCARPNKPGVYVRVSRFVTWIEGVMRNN
Chain of Tissue-type plasminogen activator (P00750 whole entry): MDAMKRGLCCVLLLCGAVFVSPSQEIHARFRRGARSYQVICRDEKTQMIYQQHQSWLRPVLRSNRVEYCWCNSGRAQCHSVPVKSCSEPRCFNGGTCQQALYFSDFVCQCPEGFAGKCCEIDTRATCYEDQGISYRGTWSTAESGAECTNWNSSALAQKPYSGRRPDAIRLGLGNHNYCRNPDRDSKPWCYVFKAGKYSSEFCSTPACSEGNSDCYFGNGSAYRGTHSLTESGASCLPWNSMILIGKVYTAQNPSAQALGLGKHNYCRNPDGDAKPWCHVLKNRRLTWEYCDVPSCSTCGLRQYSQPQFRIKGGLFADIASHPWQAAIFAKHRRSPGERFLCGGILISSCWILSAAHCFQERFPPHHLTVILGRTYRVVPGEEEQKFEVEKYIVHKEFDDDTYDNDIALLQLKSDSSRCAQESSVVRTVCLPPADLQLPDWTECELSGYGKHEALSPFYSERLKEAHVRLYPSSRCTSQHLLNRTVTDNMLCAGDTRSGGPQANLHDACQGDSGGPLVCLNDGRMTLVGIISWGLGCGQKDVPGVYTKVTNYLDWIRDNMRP
Chain of Coagulation factor IX (P00740 47-191 limits assumed): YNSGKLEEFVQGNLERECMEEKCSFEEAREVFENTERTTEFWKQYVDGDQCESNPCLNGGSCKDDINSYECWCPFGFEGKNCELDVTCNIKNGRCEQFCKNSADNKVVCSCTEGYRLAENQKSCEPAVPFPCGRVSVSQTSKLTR
Chain of Coagulation factor IX (P00740 227-461 limits assumed): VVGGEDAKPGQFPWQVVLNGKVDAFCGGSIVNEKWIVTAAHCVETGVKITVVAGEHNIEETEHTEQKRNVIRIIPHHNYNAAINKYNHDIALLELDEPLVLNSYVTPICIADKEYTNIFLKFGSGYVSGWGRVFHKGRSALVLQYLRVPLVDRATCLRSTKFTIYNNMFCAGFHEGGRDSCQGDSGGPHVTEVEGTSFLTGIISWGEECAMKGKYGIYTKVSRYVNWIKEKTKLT
Chain of Coagulation factor X (P00742 41-179 limits assumed): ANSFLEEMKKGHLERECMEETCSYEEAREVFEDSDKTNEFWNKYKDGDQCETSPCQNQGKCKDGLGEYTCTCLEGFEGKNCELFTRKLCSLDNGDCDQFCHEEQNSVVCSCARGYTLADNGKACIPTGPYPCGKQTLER
Chain of Coagulation factor X (P00742 235-488 limits assumed): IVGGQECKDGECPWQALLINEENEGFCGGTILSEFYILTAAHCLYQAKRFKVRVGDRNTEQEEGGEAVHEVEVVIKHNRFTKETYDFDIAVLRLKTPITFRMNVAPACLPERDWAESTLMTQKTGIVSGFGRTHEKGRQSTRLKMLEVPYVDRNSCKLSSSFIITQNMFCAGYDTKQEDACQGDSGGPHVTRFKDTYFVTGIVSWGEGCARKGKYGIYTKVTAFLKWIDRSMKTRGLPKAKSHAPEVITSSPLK
T6 sequence (P03952 20-390 limits assumed): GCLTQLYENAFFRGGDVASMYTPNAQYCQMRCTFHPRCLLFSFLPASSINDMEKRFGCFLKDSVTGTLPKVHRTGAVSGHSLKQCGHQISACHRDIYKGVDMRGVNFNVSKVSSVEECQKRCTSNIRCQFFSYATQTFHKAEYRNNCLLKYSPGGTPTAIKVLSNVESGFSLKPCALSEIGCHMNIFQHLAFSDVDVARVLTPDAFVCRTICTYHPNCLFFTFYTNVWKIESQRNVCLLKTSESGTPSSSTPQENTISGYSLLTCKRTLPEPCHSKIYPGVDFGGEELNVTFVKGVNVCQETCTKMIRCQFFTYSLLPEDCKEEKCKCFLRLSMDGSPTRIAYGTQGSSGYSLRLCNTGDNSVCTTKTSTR
T6 sequence (P03952 391-638 limits assumed): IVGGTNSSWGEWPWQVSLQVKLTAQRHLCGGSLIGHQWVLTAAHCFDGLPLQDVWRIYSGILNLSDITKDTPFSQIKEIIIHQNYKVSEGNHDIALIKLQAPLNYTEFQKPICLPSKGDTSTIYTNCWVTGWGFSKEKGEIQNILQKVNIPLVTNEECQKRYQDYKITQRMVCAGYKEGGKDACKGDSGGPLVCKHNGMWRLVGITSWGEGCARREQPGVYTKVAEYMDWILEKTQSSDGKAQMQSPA

What is called Ki is the dissociation constant of the complex between target and ligand, obtained from inhibition or displacement. `CC[C@H](C)[C@@H]1NC(=O)[C@@H]2CCCN2C(=O)[C@@H]2CCCN2C(=O)[C@H]([C@@H](C)CC)NC(=O)[C@H](CO)NC(=O)[C@H](CCCCN)NC(=O)[C@H]([C@@H](C)O)NC(=O)[C@@H]2CSSC[C@H](NC1=O)C(=O)N[C@@H](Cc1ccccc1)C(=O)N1CCC[C@H]1C(=O)N[C@@H](CC(=O)O)C(=O)NCC(=O)N[C@@H](CCCNC(=N)N)C(=O)N2`: the K at Trypsin (Sus scrofa) [1] worked out at 0.5 ×10⁻⁴ /s; at Trypsin (Sus scrofa) [3], 0.2 ×10⁷ /M/s. In addition, the Ki was 130 µM on Coagulation factor XII [2], 0.017 nM in assay [4] and 0.2 µM in assay [5].
Turning to `CC[C@H](C)[C@@H]1NC(=O)[C@@H]2CCCN2C(=O)[C@@H]2CCCN2C(=O)[C@H]([C@@H](C)CC)NC(=O)[C@H](CO)NC(=O)[C@H](CCCCN)NC(=O)[C@H](Cc2ccc(O)cc2)NC(=O)[C@@H]2CSSC[C@H](NC1=O)C(=O)N[C@@H](Cc1ccccc1)C(=O)N1CCC[C@H]1C(=O)N[C@@H](CC(=O)O)C(=O)NCC(=O)N[C@@H](CCCNC(=N)N)C(=O)N2` (HELM PEPTIDE1{C.F.P.D.G.R.C.Y.K.S.I.P.P.I}$PEPTIDE1,PEPTIDE1,1:R3-7:R3|PEPTIDE1,PEPTIDE1,1:R1-14:R2$$$V2.0), the inhibition constant Ki on Plasminogen was 0.14 nM; on Coagulation factor IX, over 50 µM; on Cathepsin G, 7.8 µM; on Coagulation factor XII [6] it was over 50 µM; at Serine protease 1 it was 0.011 µM; in [7] it was 480 µM. Moreover, the inhibition constant (Ki) at Prothrombin [8] was 250 µM; on Plasma kallikrein [9], 32 µM; in [10] it was over 50 µM; on Prothrombin [11] it was 250 µM; in [12], over 50 µM; at Coagulation factor XI [13] it was 13 µM. At Coagulation factor X, the Ki was over 50 µM.
Consider `CC[C@H](C)[C@@H]1NC(=O)[C@@H]2CCCN2C(=O)[C@@H]2CCCN2C(=O)[C@H](CCCNC(=N)N)NC(=O)[C@H](CO)NC(=O)[C@H](CCCCN)NC(=O)[C@H](Cc2ccc(O)cc2)NC(=O)[C@@H]2CSSC[C@H](NC1=O)C(=O)N[C@@H](Cc1ccccc1)C(=O)N1CCC[C@H]1C(=O)N[C@@H](CC(=O)O)C(=O)NCC(=O)N[C@@H](CCCNC(=N)N)C(=O)N2` (HELM PEPTIDE1{C.F.P.D.G.R.C.Y.K.S.R.P.P.I}$PEPTIDE1,PEPTIDE1,1:R3-7:R3|PEPTIDE1,PEPTIDE1,1:R1-14:R2$$$V2.0), for which the Ki on Plasminogen is 0.041 nM; in assay [14], over 50 µM; at Coagulation factor IX it was over 50 µM; at Plasma kallikrein [15], over 50 µM; at Cathepsin G, 13 µM; at Coagulation factor XII [6] it was over 50 µM. Also, the inhibitory constant (Ki) is 0.028 µM on Serine protease 1; over 50 µM on Coagulation factor XI [16]; over 50 µM on Prothrombin [8]; over 50 µM in assay [10]; over 50 µM in assay [12]; over 50 µM at Coagulation factor X.
